Measurements from patent publication US20260256728A1, “TREATMENT FOR ASYMPTOMATIC STARGARDT DISEASE PATIENTS” (priority 2024, published 2026).

Test system: atrophic retinal lesions in Stargardt disease patients
Assay: TEASE-1 growth rate of atrophic retinal lesions by fundus autofluorescence imaging
Format: in vivo, human
Set-up: relative slower growth rate of atrophic retinal lesions versus control / Percentage Slowing of Atrophic Retinal Lesion Growth Rate: concentration or dose not given beside the values
Description: The Tolerability and Effects of gildeuretinol acetate in Stargardt Disease (Clinical trial group 1, also known as TEASE-1) was a 24-month, multicenter, double-masked, placebo-controlled trial designed to evaluate the efficacy and safety of daily oral gildeuretinol acetate in slowing the growth of atrophic retinal lesions in Stargardt disease patients. The trial was conducted at multiple sites in the United States (NCT02402660).
Patients 12 years or older, clinically diagnosed with Stargardt disease, with at least one ABCA4 mutation, at least one eye presenting with well-demarcated areas of reduced fundus autofluorescence including retinal atrophic lesions, and with any visual acuity, were enrolled.
Patients were randomized to gildeuretinol acetate 14 mg capsules, gildeuretinol acetate 24 mg capsules, or placebo capsules, to be taken once daily for one year. After one year, 50% of randomly selected patients receiving placebo were crossed over in a 1:1 ratio to gildeuretinol acetate 14 mg capsules or gildeuretinol acetate 24 mg capsules for a second year.
Deidentified retinal images of patients not enrolled in the trial were included as a natural history cohort. This natural history cohort comprised patients diagnosed with Stargardt disease of any age, with two or more longitudinal fundus autofluorescence images taken at least four months apart over a maximum period of 2.5 years.
[…] retinal imaging comparing gildeuretinol acetate versus the untreated arm ([…]). Only well-delineated and homogeneous retinal atrophic lesions ≥0.2 mm^2 with a summed area ≥0.5 mm^2 were included in the primary analysis.
The primary endpoint analysis used a linear mixed-effect model (LMEM) with repeated measures, conferring a higher power to detect smaller effects. All observed data, including both eyes, were utilized. Treatment duration was computed as a continuous measure for each visit based on years since randomization. Adjustments for baseline retinal atrophy used the baseline atrophic retinal lesion size as a fixed effect in the LMEM. Additional fixed effects included treatment arm, treatment duration, and interaction between the treatment arm and treatment duration. Random effects included patient, eye, grader to adjust for correlation between eyes within a patient, graders' assessment of an eye, and observations of the same eye over time. A random effect slope term was added to the effect of treatment duration. Patients who crossed over to gildeuretinol acetate after year one were included in the untreated arm from baseline to year one, then in the gildeuretinol acetate arm from […] upon crossing over to gildeuretinol acetate. The full analysis set (FAS) comprised all randomized patients who received at least one dose of the study drug.
[…] All available data between 0 and 24 months was used to compute the slope of each segment. The primary efficacy endpoint was the slope of the second segment. No constraints were imposed on the Y-intercept. All growth rates were calculated on a per-year basis.
No imputations were made for missing data because the LMEM yields valid inferences under the assumption of a missing-at-random mechanism. The two-sided P-value of the primary efficacy endpoint was calculated using Kenward-Roger's method for handling denominator degrees of freedom and small samples. The goodness of fit of the linear mixed-effect model was provided as R-squared (R^2). Analyses were conducted in R (R Core Team, 2020). Prespecified, unadjusted sensitivity analyses of the primary efficacy endpoint included growth rates of untransformed areas of retinal atrophy and growth rates using a single-slope from baseline until the last available visit. Post-hoc unadjusted analyses were performed to evaluate the potential contribution of patient characteristics.

`[2H]C([2H])([2H])C(/C=C/C=C(C)/C=C/C1=C(C)CCCC1(C)C)=C\CO` [Gildeuretinol, C20D3-retinol] was tested, and the “Percentage Slowing of Atrophic Retinal Lesion Growth Rate” value (“Percentage Slowing” below) (Crossover patients: 12 months placebo vs. 12 months treatment) was 21%, the “Percentage Slowing” value (Excluding 2 natural history cases <18 years old, 9 natural histories >60 years old) was 21% and the “Percentage Slowing” value (Excluding 3 randomized patients with one confirmed mutation) was 20%. For the same compound, the “Percentage Slowing” value (Excluding 13 natural history cases without any confirmed ABCA4 mutations and 6 natural histories with one confirmed mutation) was 20%, the “Percentage Slowing” value (Excluding 16 natural histories with only two follow up time points) was 20% and the “Percentage Slowing” value (Excluding natural history, randomized patients only, one slope (mm^2)) was 30%. The “Percentage Slowing” value (Excluding natural history, randomized patients only, two slopes (mm^2)) was 23%, the “Percentage Slowing” value (Using a single-slope from 0 to 24 months (mm^2)) was 31% and the “Percentage Slowing” value (Using untransformed areas of atrophic lesions (mm^2)) was 28%.
